Here are results for three molecules from patent US20260285835A1, “SOLID FORM OF PYRROLIDONE DERIVATIVE AS GLUCOKINASE ACTIVATOR” (priority 2023, published 2026).

Read-outs that look alike come from different tables or passages of the source.

One data set deals with C57BL/6J mice. Nature of the data set: Pharmacodynamic study: OGTT blood glucose and insulin level in C57BL/6J mice. It is filed as in vivo. Conditions: for Blood glucose level at 0 min (pre-glucose) vs vehicle control group: each administration group, 1 hour after administration, dose-response relationship. How it is done:
There were 7 groups of mice, with 8 mice in each group. […] Oral glucose tolerance test (OGTT) was performed 1 hour after administration. The blood glucose level in mice was tested before administration (−60 min), before sugar administration (0 min), and at 15 min, 30 min, 60 min, and 120 min after sugar administration. In addition, 40 μl of blood was collected from the tail tip before sugar administration (0 min) and at 15 min after sugar administration to collect the plasma for an insulin level test.
All data was transferred into an Excel document. The blood glucose results were expressed in mg/dL and expressed as MEAN±SEM. Differences between multiple groups were analyzed using Dunnett's method in one-way analysis of variance (ANOVA) or two-way analysis of variance (ANOVA) with Graphpad Prism 8 software for comparison, and the differences were considered statistically significant when the P value was less than 0.05.

Data set [1] in a line: Photostability (direct sunlight) of free state crystal form A. The class given is physicochemical.
Source text: The resulting sample was sampled at day 4 and day 15 for HPLC analysis.
A short description of data set [2]: High-humidity stability (90% RH) of free state crystal form A. It is filed as physicochemical.
Source text: (§1) The resulting sample was sampled at day 6, day 14 and day 34 for HPLC analysis.
A short description of data set [3]: High-temperature stability (60° C.) of free state crystal form A. The class given is physicochemical.
Source text: as §1
Data set [4] is classed as physicochemical. Conditions: room temperature.
A short description of data set [5]: Dynamic vapour sorption (DVS) test. It is filed as physicochemical. Conditions: 25° C. How it is done: A dynamic vapour sorption (DVS) test was conducted on crystal form A of the free state and crystal form B of the hydrochloride.
A certain amount of powder was taken and put into a sample pan, and hygroscopicity of the sample was evaluated with DVS according to the following instrument method: […]

Data set [6] is described as follows: Forced degradation stability test (heat, humidity and heat, light). It is filed as physicochemical. Conditions: light box 10 days.
Procedure: About 10 mg of the sample powder was weighed and placed in a transparent vial, an amber vial, and a transparent vial sealed with aluminum foil, respectively. Those vials were placed in a light box for 10 days, with a total illumination of 1.2×10^6 Lux·hr and a near-UV energy not less than 200w·hr/m^2, for photostability evaluation.
The samples were taken at each time point for HPLC and XRPD analysis to evaluate the chemical and physical stability.
A short description of data set [7]: Simulated metabolic test in human intestine S9. The class given is in vitro ADME.
Procedure: 73.21 g of K2HPO4·3H2O (AR grade) and 10.78 g of KH2PO4 (AR grade) were dissolved in ultra-pure water to obtain a final volume of 4000 mL and a final concentration of 100 mM. The pH of the final test solution was adjusted to 7.40±0.10 with H3PO4/KOH.
An Apricot automation workstation was used to add 50 μL/well of HIS9 solution to the corresponding wells of all reaction plates (blank, T0, T5, T15, T30, T45, T60).
An Apricot automation workstation was used to add 48 μL/well of PB to the corresponding wells of every reaction plate (blank, T0, T5, T15, T30, T45, T60) to start the reaction.
The reaction plates were incubated at 37° C., and timer was started. An Apricot automation workstation was used to add 300 μL/well of stop solution (cold acetonitrile containing 200 ng/mL tolbutamide (internal standard)) to the corresponding wells of each reaction plate at the appropriate end time point to stop the reaction.
Each plate was sealed and shaken for 10 minutes. Each plate was centrifuged at 4000 rpm and 4° C. for 20 minutes. After centrifugation, 100 μL of supernatant was transferred from each reaction plate to the corresponding analysis plate, and mixed well with 300 μL of ultra-pure water.
A short description of data set [8]: Stability test in simulated intestinal fluid (SIF). Particulars: 37° C. The class given is in vitro ADME.
Procedure: 0.136 g of KH2PO4 and 0.2 g of pancreatin were dissolved in water to obtain a final volume of 20 mL. The pH of the test solution was about 6.80±0.05.
Then 200 μL of supernatant was pipetted and mixed completely again with 400 μL of cold acetonitrile containing 200 ng/mL tolbutamide (internal standard). • 7) All samples were centrifuged at 4000 rpm, 4° C. for 20 min. • 8) 60 μL of supernatant was pipetted and mixed completely with 180 μL of ultra-pure water, and the mixture was subjected to LC-MS/MS analysis.
A further data set relates to Caco-2 cells. Nature of the data set: Caco-2 bi-directional permeability test. The class given is in vitro ADME. In general terms: Caco-2 cells form a polarised layer with tight junctions and transporters.
The nature of data set [9]: Caco-2 bi-directional permeability test. Particulars: human; for metabolised at 2 h, 2 µM: Caco-2, pH 7.4, Compound A concentration 2.00 μM; for metabolised at 2 h, 10 µM: Caco-2, pH 7.4, Compound A concentration 10.0 μM; for metabolised at 2 h, 30 µM: Caco-2, pH 7.4, Compound A concentration 30.0 μM. The class given is in vitro ADME.
Procedure: (§2) Caco-2 cell culture: Caco-2 cells (purchased from American Type Culture Collection, ATCC) were inoculated on polyethylene film (PET) of a 96-well culture plate at a concentration of 1×10^5 cells/cm^2. The culture medium was replaced every 4 days until cell confluency to form cell monolayer on day 21 or 28.
(§3) Transport test: Transport buffer used in the test was Hanks' Balanced Salt Solution (HBSS) containing 10 mM 2-[4-(2-hydroxyethyl)-1-piperazinyl]ethanesulfonic acid (HEPES) with a pH of 7.40±0.05. […] The final concentration of DMSO in the incubation system was adjusted to <1%.
Data set [10] in a line: Stability test in simulated gastric fluid (SGF). The class given is in vitro ADME. Conditions: 37° C.
Procedure: 0.04 g of NaCl and 0.064 g of pepsin were dissolved in 0.14 mL of HCl, and water was added to bring the total volume to 20 mL. The pH of the test solution was about 1.20±0.05.
Then 200 μL of supernatant was pipetted and mixed completely again with 400 μL of cold acetonitrile containing 200 ng/mL tolbutamide (internal standard). 7) All samples were centrifuged at 4000 rpm, 4° C. for 20 min. • 8) 60 μL of supernatant was pipetted and mixed completely with 180 μL of ultra-pure water, and the mixture was subjected to LC-MS/MS analysis.
The format of data set [11] is in vivo. Particulars: rats.
Procedure: Each group was divided into 2 subgroups (intravenous bolus group (IV) and gavage group (PO)).
Whole blood samples (about 0.2 mL per time point) were collected at pre-dose (0), 0.083, 0.25, 0.5, 1, 2, 4, 8, 12, and 24 hours post-dose by jugular vein puncture. All the blood samples were immediately transferred into labeled pre-chilled commercial microcentrifuge tubes containing 4 μL of 0.5M K2-EDTA and 10 μL of cocktail stabilizer. Samples were placed on wet ice until centrifugation (within 30 min). Plasma samples were then prepared by centrifuging the blood samples at approximately 4° C., 3200×g for 10 minutes. Supernatant plasma was pipetted, then quickly frozen over dry ice, and then kept at −60° C. or lower temperature until LC-MS/MS analysis. The cocktail stabilizer was prepared according to the following Table 8:
The plasma concentrations were subjected to a non-compartmental pharmacokinetic analysis by using the WinNonlin™ software program (version 6.3).
Setting [12] is: Compound A concentration 2.00 μM.
Setting [13] is: Compound A concentration 10.0 μM, 120 min.
Where [14] appears, read: Compound A concentration 30.0 μM, 120 min.
Where [15] appears, read: read-out: Average conversion rate to parent drug HMS5552 (%) A→B.
[16] abbreviates: read-out: Average conversion rate to parent drug HMS5552 (%) B→A.

Procedure for Caco-2 cells: as §2, §3

`CC(C)C[C@@H](C(=O)Nc1ccn(C[C@@H](O)CO)n1)N1CC(Oc2ccccc2Cl)=CC1=O` [HMS5552, (S)-2-(4-(2-chlorophenoxy)-2-oxo-2,5-dihydro-1H-pyrrol-1-yl)-N-(1-((R)-2,3-dihydroxypropyl)-1H-pyrazol-3-yl)-4-methylpentanamide, reference compound]: the “OGTT blood glucose values vs vehicle control group” value in the data set on C57BL/6J mice (oral 40 mg/kg, at 30 min, 60 min and 120 min after glucose) was “significantly lower than that of the vehicle control group”. The “Blood glucose level at 0 min (pre-glucose) vs vehicle control group” value in the data set with C57BL/6J mice (oral) is reported as “generally lower than that of the vehicle control group”. Further, in the data set on C57BL/6J mice (oral, each dose group), the “Insulin levels at 0 min and 15 min vs vehicle control group” value was “slightly higher than those in the vehicle control group, without significant difference”.

As for `CC(C)C[C@@H](C(=O)Nc1ccn(C[C@@H](O)COC(=O)c2cccnc2)n1)N1CC(Oc2ccccc2Cl)=CC1=O` [crystal form A of the free state, (R)-3-(3-((S)-2-(4-(2-chlorophenoxy)-2-oxo-2,5-dihydro-1H-pyrrol-1-yl)-4-methylpentanamido)-1H-pyrazol-1-yl)-2-hydroxypropyl nicotinate], the “Purity (Area %)” value in data set [1] (0 hour) is recorded as 98.17 Area %; in [1] (direct sunlight, Day 4) it was 99.07 Area %; in data set [1] (direct sunlight, Day 15), 99.10 Area %; in [2] (0 hour) it was 98.17 Area %; in data set [2] (90% RH, Day 6, without cover) it was 98.99 Area %; in data set [2] (90% RH, Day 14, without cover), 99.09 Area %. Further, the “Purity (Area %)” value in data set [3] (0 h) turned out to be 98.17 Area %; in [3] (60° C., Day 6, without cover), 99.03 Area %; in data set [3] (60° C., Day 14, without cover), 99.11 Area %. Further, the “Photostability (HPLC), conclusion” value in data set [1] (direct sunlight) is “still stable after being placed under sunlight for 15 days”. Also, in [2] (90% RH without cover), the “High-humidity stability (HPLC), conclusion” value was “still stable after being placed under the condition of 90% relative humidity for 14 days”. For the same molecule, the “High-temperature stability (HPLC), conclusion” value in data set [3] (60° C. oven without cover) is “still stable after being placed at 60 °C for 14 days”. In addition, the “Solubility (mg/mL)” value in data set [4] (DMAc) is “S>40.0 mg/mL”; in [4] (DMSO), “S>42.0 mg/mL”; in data set [4] (MeOH), “S>42.0 mg/mL”; in data set [4] (NMP), “S>40.0 mg/mL”; in data set [4] (n-Heptane) it was “S<1.1 mg/mL”. For the same molecule, the Moisture-induced weight gain result in data set [5] (relative humidity of 95%) is on record as “less than 0.7%”; in data set [5] (relative humidity of less than or equal to 90%), “less than 0.5%”. Also, the “Crystalline form after forced degradation (XRPD)” value in [6] (50° C., 80° C., 40° C./75% RH (unsealed), 1 day, 2 weeks, 4 weeks) is on record as “does not change”. Further, in [6] ([…]10^6 Lux·hr, near-UV not less than 200w·hr/m^2), the “Effect of light on stability” value was “no effect on the stability”.

For `CC(C)C[C@@H](C(=O)Nc1ccn(C[C@@H](O)COC(=O)c2cccnc2)n1)N1CC(Oc2ccccc2Cl)=CC1=O` [Compound A, (R)-3-(3-((S)-2-(4-(2-chlorophenoxy)-2-oxo-2,5-dihydro-1H-pyrrol-1-yl)-4-methylpentanamido)-1H-pyrazol-1-yl)-2-hydroxypropyl nicotinate], the “Parent drug HMS5552 (%)” value in data set [7] (HIS9 0.5 mg/mL, 37° C., 0 min) was 1.1%; in data set [8] (generation in SIF, 2 μM, 0 hr), 0.86%; in [10] (generation in SGF, 2 μM, 0 hr), 0.92%. Further, in data set [7] (human intestine S9), the “Time to complete metabolism and conversion into parent drug HMS5552” value was at most 5 min. Further, the metabolised at 5 min in [7] (human, s9, pH 7.4, HIS9 0.5 mg/mL, 37° C., 5 min, read-out: Parent drug HMS5552 (%)) is 80%. Besides, the metabolised at 0.25 h in data set [7] (human, s9, pH 7.4, HIS9 0.5 mg/mL, 37° C., 15 min, read-out: Parent drug HMS5552 (%)) was 77.2%. Besides, the metabolised at 0.5 h in [7] (human, s9, pH 7.4, HIS9 0.5 mg/mL, 37° C., 30 min, read-out: Parent drug HMS5552 (%)) is 79.8%. In addition, the metabolised at 0.75 h in data set [7] (human, s9, pH 7.4, HIS9 0.5 mg/mL, 37° C., 45 min, read-out: Parent drug HMS5552 (%)) is 81.2%. Further, the metabolised at 1 h in [7] (human, s9, pH 7.4, HIS9 0.5 mg/mL, 37° C., 60 min, read-out: Parent drug HMS5552 (%)) was 90.5%. The metabolised at 1 h, 2 µM is 35.6% in data set [8] (simulated intestinal fluid, pH 6.8, generation in SIF, 1 hr, read-out: Parent drug HMS5552 (%)) and 0.86% in data set [10] (simulated gastric fluid, pH 1.2, generation in SGF, 1 hr, read-out: Parent drug HMS5552 (%)). Besides, the metabolised at 2 h, 2 µM in data set [8] (simulated intestinal fluid, pH 6.8, generation in SIF, 2 hr, read-out: Parent drug HMS5552 (%)) is 46.6%; in [9] (setting [15]), 26.5%; in [9] (setting [16]), 5.8%; in [10] (simulated gastric fluid, pH 1.2, generation in SGF, 2 hr, read-out: Parent drug HMS5552 (%)), 0.87%. Further, the metabolised at 6 h, 2 µM in data set [8] (simulated intestinal fluid, pH 6.8, generation in SIF, 6 hr, read-out: Parent drug HMS5552 (%)) is 72.8%; in [10] (simulated gastric fluid, pH 1.2, generation in SGF, 6 hr, read-out: Parent drug HMS5552 (%)), 1.02%. Besides, the metabolised at 24 h, 2 µM in data set [8] (simulated intestinal fluid, pH 6.8, generation in SIF, 24 hr, read-out: Parent drug HMS5552 (%)) is 73.4%; in [10] (simulated gastric fluid, pH 1.2, generation in SGF, 24 hr, read-out: Parent drug HMS5552 (%)), 1.63%. Further, the “Average recovery rate (%) A→B” value is listed as 52.9% in the data set with Caco-2 cells (setting [12]) and 37.5% with Caco-2 cells (setting [13]). The results for the “Average recovery rate (%) B→A” value in the data set with Caco-2 cells (setting [12]), in the data set with Caco-2 cells (setting [13]) and in the data set on Caco-2 cells (setting [14]) were 87.1%, 81.6% and 82.2%, respectively. In addition, the “The average apparent permeability Papp A→B” value in the data set with Caco-2 cells (setting [12]) is listed as 0.02977 10^−6 cm/s; in the data set on Caco-2 cells (setting [13]), 0.03187 10^−6 cm/s; in the data set on Caco-2 cells (setting [14]) it was 0.04322 10^−6 cm/s. The metabolised at 2 h, 10 µM was determined as 37.4% in [9] (setting [15]) and 5.6% in data set [9] (setting [16]). In addition, the metabolised at 2 h, 30 µM in [9] (setting [15]) was determined as 26.8%; in data set [9] (setting [16]) it was 3.4%. In addition, in the data set with C57BL/6J mice (oral 18.4 mg/kg), the “Insulin level at 15 min vs corresponding dose group of HMS5552” value is “significantly higher than that of the corresponding dose group of HMS5552”. Further, the “Insulin level at 15 min vs vehicle control group” value with C57BL/6J mice (oral 18.4 mg/kg) and with C57BL/6J mice (oral 49.1 mg/kg) was “significantly higher than that of the vehicle control group” throughout. In the data set with C57BL/6J mice (oral 49.1 mg/kg, at 15 min, 30 min, 60 min and 120 min after glucose), the “OGTT blood glucose values vs vehicle control group” value is “significantly lower than that of the vehicle control group”. Also, the “OGTT blood glucose values vs HMS5552-40 mg/kg group” value with C57BL/6J mice (oral 49.1 mg/kg, at 30 min, 60 min and 120 min after glucose) is reported as “significantly lower than that of the HMS5552-40 mg/kg group”. In the data set on C57BL/6J mice (oral), the “Blood glucose level at 0 min (pre-glucose) vs vehicle control group” value was “generally lower than that of the vehicle control group”. For the same molecule, in the data set with C57BL/6J mice (oral, high-dose group), the “Insulin level at 0 min vs vehicle control group and HMS5552 high-dose group” value is “significantly higher than that of the vehicle control group and the HMS5552 high-dose group”. The “OGTT AUC0-120min vs corresponding dose groups of HMS5552” value in the data set on C57BL/6J mice (oral, medium and high dose groups) is reported as “significantly lower than those of the corresponding dose groups of HMS5552”. For the same molecule, the “Metabolism after intravenous injection (in words)” value in data set [11] was “metabolized very rapidly”.
